{
  "source": "patent US8703726B2",
  "about": "“Methods for treating prostate conditions” (PTC Therapeutics, Inc., priority 2009, dated 2014)",
  "key": {"HT1080 cells": {"tested_on": "HT1080 cells", "test": "Cell cycle analysis by propidium iodide flow cytometry in HT1080 cells (% cells in S-phase, Table 24)", "assay_type": "cell-based, human", "conditions": "same tumor cells", "description": "Experimental Design. […] After treatment, cells were trypsinized, and stained with propidium iodide (PI) dye to measure DNA content of individual cells by flow cytometry. Output comprised histograms showing relative DNA content in 10,000 cells.\nWhile compounds which cause greater than 20% of the cells to accumulate in S-phase at 100 nM are considered active, a larger percentage of cells may be accumulated in S-phase at lower doses depending on the Compound, as shown in FIG. 12 for example."}, "PC3 xenografts": {"tested_on": "PC3 xenografts", "test": "PC3 tumors in mice: Compound #10 as monotherapy and with docetaxel"}, "[1]": {"tested_on": "LNCaP prostate tumor cells", "test": "LNCaP tumors in SCID mice: Compound #10 as monotherapy and with docetaxel"}, "[2]": {"tested_on": "LNCaP prostate tumor cells", "conditions": "mouse, in vivo, iv, 3 mg/kg"}, "[3]": {"tested_on": "LNCaP prostate tumor cells", "conditions": "mouse, in vivo, po, 25 mg/kg"}, "[4]": {"tested_on": "LNCaP prostate tumor cells", "test": "LNCaP tumors in SCID mice: Compound #10 as monotherapy and with bicalutamide"}, "[5]": {"conditions": "Docetaxel, 3 mg/kg IV on Days 1 and 8, Vehicle, QD, daily"}, "[6]": {"conditions": "Bicalutamide, 25 mg/kg QD on Days 0, 1, 2, 3, 6, 7, 8, 9, and 10, L21 vehicle, QD, oral"}},
  "note": "Like-named read-outs stand apart in the source and are kept apart here.",
  "data": [
    {"smiles": "NC(Cn1ccc(=O)c(O)c1)C(=O)O", "note": "(centres unmarked) [mimosine]", "values": [
      {"measurement": "effect of comparator on cell cycle (and VEGF production) (data not shown)", "setting": "HT1080 cells", "result": "does not delay or prolong the cell cycle or reduce VEGF production"}
    ]},
    {"smiles": "CC(=O)O[C@@]12CO[C@@H]1C[C@H](O)[C@@]1(C)C(=O)[C@H](O)C3=C(C)[C@@H](OC(=O)[C@H](O)[C@@H](NC(=O)OC(C)(C)C)c4ccccc4)C[C@@](O)([C@@H](OC(=O)c4ccccc4)[C@H]21)C3(C)C", "note": "[docetaxel]", "values": [
      {"measurement": "Average Time on Therapy", "setting": "PC3 xenografts; 3 mg/kg IV Day 1, 8 and 10 mg/kg Day 29, vehicle 22", "result": 23, "unit": "days"},
      {"measurement": "Median Time to Reach 1000 mm^3 (time to progression)", "setting": "PC3 xenografts; 3 mg/kg IV Day 1, 8 and 10 mg/kg Day 29, vehicle 23", "result": 22, "unit": "days"},
      {"measurement": "body weight change", "setting": "PC3 xenografts; PC3 tumor-bearing mice, Day 35 / Day 42", "result": "significantly more weight loss"},
      {"measurement": "median time to progression (tumor ≧1000 mm^3)", "setting": "PC3 xenografts; docetaxel IV 3 mg/kg on Day 1 and at 8 and 10 mg/kg on Day 29", "result": 22, "unit": "days"},
      {"measurement": "tumors vs vehicle-treated mice", "setting": "PC3 xenografts; docetaxel IV, up to Day 35", "result": "not significantly different from the tumors in vehicle-treated mice"},
      {"measurement": "mean±SD tumor size", "setting": "[1]; Day 31, Compound #10 10 mg/kg PO QD, docetaxel 3 mg/kg Days 1 and 8", "result": "1017±458", "unit": "mm3"},
      {"measurement": "inhibition of tumor size or of the increase in tumor size versus vehicle", "setting": "[1]; Day 31, docetaxel 3 mg/kg Days 1 and 8", "result": "No statistically significant differences"},
      {"measurement": "Percent Inhibition Relative to Vehicle: Tumor Growth From Day 0 to 31", "setting": "[1]; [5]", "result": 17, "unit": "%"},
      {"measurement": "Percent Inhibition Relative to Vehicle: Tumor Volume at Day 31", "setting": "[1]; [5]", "result": 12, "unit": "%"},
      {"measurement": "Day of Maximal Loss (body weight)", "setting": "[2]", "result": "(Day 13)"},
      {"measurement": "Maximal Body Weight Loss From Initial Weight", "setting": "[2]", "result": "−15", "unit": "%"}
    ]},
    {"smiles": "CC(O)(CS(=O)(=O)c1ccc(F)cc1)C(=O)Nc1ccc(C#N)c(C(F)(F)F)c1", "note": "(centres unmarked) [bicalutamide]", "values": [
      {"measurement": "Day of Maximal Loss (body weight)", "setting": "[3]", "result": 20, "unit": "days"},
      {"measurement": "Maximal Body Weight Loss From Initial Weight", "setting": "[3]", "result": "−5.3", "unit": "%"},
      {"measurement": "Percent Inhibition Relative to Vehicle: Tumor Growth From Day 0 to 31", "setting": "[4]; [6]", "result": 9.3, "unit": "%^"},
      {"measurement": "Percent Inhibition Relative to Vehicle: Tumor Volume at Day 31", "setting": "[4]; [6]", "result": 7.2, "unit": "%^"},
      {"measurement": "mean±SD tumor size", "setting": "[4]; Day 30, Compound #10 10 mg/kg PO QD, bicalutamide 25 mg/kg QD", "result": "1059±321", "unit": "mm3"}
    ]}
  ]
}
